Measured values published in patent publication US10517851B2, “Vasopressin-like action enhancer” (KYORIN PHARMACEUTICAL CO., LTD., priority 2015, dated 2019).

How the values were obtained:
[1] = tested on: female rats; assay: Antidiuretic action in water-loaded rats, urine collected for 2 hours (single agent); type: in vivo, rat; conditions: oral water load 25 mL/kg, FIG. 1 / FIG. 2; for antidiuretic action: intravenous dose series; for reduction of the urinary volume at the maximum: intravenous
Experimental: A method according to Watanabe et al. (Watanabe et al 2013 Antidiuretic effect of antimuscanrinic agents in rat model depends on C-fibre afferent nerves in the bladder. BJU Int 112(1) 131-6) was carried out with a partial modification. Female rats (10 to 11-week-old, obtained from Charles River Laboratories Japan) were intravenously administered (1 mL/kg) with a vehicle (saline) or imidafenacin ([…]) and subjected to an oral water load (25 mL/kg). After the rats were transferred to Bollmann cages, urine was collected for 2 hours from each rat via a catheter previously inserted and fixed to the bladder apex of the rat (8 rats in each group). The method according to Watanabe et al. (Watanabe et al 2013 Antidiuretic effect of antimuscanrinic agents in rat model depends on C-fibre afferent nerves in the bladder. BJU Int 112(1) 131-6) was carried out with a partial modification. Female rats (10 to 11-week-old, obtained from Charles River Laboratories Japan) were intravenously administered (1 mL/kg) with a vehicle (saline) or desmopressin ([…]) and subjected to an oral water load (25 mL/kg). After the rats were transferred to Bollmann cages, urine was collected for 2 hours from each rat via a catheter previously inserted and fixed to the bladder apex of the rat (8 rats in each group).

[2] = tested on: female rats; assay: Effect of mozavaptan (V2 antagonist) on antidiuretic action in water-loaded rats; type: in vivo, rat
Experimental: The method according to Watanabe et al. (Watanabe et al 2013 Antidiuretic effect of antimuscanrinic agents in rat model depends on C-fibre afferent nerves in the bladder. BJU Int 112(1) 131-6) was carried out with a partial modification. Female rats (10 to 11-week-old, obtained from Charles River Laboratories Japan) were intravenously administered with a vehicle (dimethylformamide or saline); mozavaptan (a dose of 0.1 mL/kg of a 30 mg/mL solution); 3 mg/kg of mozavaptan and imidafenacin (10 μg/kg or 300 μg/kg); 3 mg/kg of mozavaptan and desmopressin (0.003 μg/kg or 0.1 μg/kg); or 3 mg/kg of mozavaptan, imidafenacin (10 μg/kg or 300 μg/kg) and desmopressin (0.003 μg/kg or 0.1 μg/kg), and subjected to an oral water load (25 mL/kg). After the rats were transferred to Bollmann cages, urine was collected for 2 hours from each rat via a catheter previously inserted and fixed to the bladder apex of the rat (8 rats in each group).

[3] = tested on: vasopressin; conditions: rat; previous report BJU Int 112(1) 131-6; cited from earlier work

SMILES	antidiuretic action [1]	reduction of the urinary volume at the maximum [1]	antidiuretic action of desmopressin at the maximum reaction dose in the presence of mozavaptan ([2]; desmopressin 0.1 μg/kg with 3 mg/kg of mozavaptan, intravenous, FIG. 4)	antidiuretic action of desmopressin in the presence of mozavaptan ([2]; desmopressin with 3 mg/kg of mozavaptan, intravenous, FIG. 4)	antidiuretic action on addition of imidafenacin to the mozavaptan and desmopressin group ([2]; imidafenacin 300 μg/kg added to 3 mg/kg mozavaptan and 0.1 μg/kg desmopressin, FIG. 5)	antidiuretic action of imidafenacin in the presence of mozavaptan ([2]; imidafenacin at the maximum reaction dose of 300 μg/kg with 3 mg/kg of mozavaptan, intravenous, FIG. 4)	release of vasopressin [3]
NC(=O)CC[C@@H]1NC(=O)[C@H](Cc2ccccc2)NC(=O)[C@H](Cc2ccc(O)cc2)NC(=O)CCSSC[C@@H](C(=O)N2CCC[C@H]2C(=O)N[C@H](CCCN=C(N)N)C(=O)NCC(N)=O)NC(=O)[C@H](CC(N)=O)NC1=O [desmopressin]	dose-dependent manner	about 100%	recovered	also suppressed			
Cc1nccn1CCC(C(N)=O)(c1ccccc1)c1ccccc1 [imidafenacin]	dose-dependent manner	about 50%			further enhanced	completely suppressed	not affected
